Columns and labels:
Format in all cases: in vivo
zebrafish larvae = experiment: Toxicity in zebrafish larvae; conditions: 3 dpf larvae, observed daily for 72 hours post incubation
Source text: Parameters of developmental toxicity (organ size and shape), cardiac toxicity (cardiac edema and heart rate), neuromuscular toxicity (touch response) and finally death were investigated.

[1] = test system: LPS induced zebrafish sepsis model; experiment: Survival in LPS induced zebrafish sepsis model; conditions: comparison of UNC0642 and A366, zebrafish larvae, 27 μg/ml LPS, 24 h
Experimental: (§1) An LPS induced zebrafish sepsis model which mimics the hallmarks of human sepsis was developed (Philip et al., 2017). Zebrafish show varied susceptibility and responsiveness to LPS from different bacterial strains. Exposure of zebrafish larvae at 3 days post-fertilization (dpf) to two types of LPS (LPS from Escherichia coli 0111:B4 (Sigma) at 100 μg/ml for 5-6 hrs; or LPS from Salmonella at 27 μg/ml for 24 hrs) were both effective in inducing tail fin swelling, increased ROS production, increased vascular leakage and increased mortality.
Survival analyses for zebrafish (wildtype) exposed to various concentrations of LPS (Escherichia coli 0111:B4; Sigma) was performed. 3 dpf larvae were exposed to LPS by immersion technique. Larvae were treated with 10, 25, 50, 125, 250, 500, 1000, 2500, 5000 or 10000 nM UNC0642 along with 100 μg/ml LPS (LPS was dissolved in eggwater), by static immersion at 28.5° C. for 24 h in a total volume of 2 mL per treatment. Control larvae were exposed to egg water. Survival numbers were recorded and EC50s calculated.
(§2) 3 dpf larvae were exposed to LPS by immersion technique. […] Control larvae were exposed to egg water. Survival numbers were recorded and EC50s calculated. The percentage (%) of embryos showing vascular leakage was also recorded and 1050s calculated.

[2] = test system: LPS-induced vascular leakage; experiment: Vascular leakage (leaked red blood cells in tailfin) in LPS-treated zebrafish larvae; conditions: comparison of UNC0642 and A366, zebrafish larvae, 27 μg/ml LPS, 24 h
Experimental: as §1
3 dpf Tg (flk1:GFP; gata-1:Dsred) double transgenic larvae were exposed to Vehicle, LPS (100 μg/ml) or LPS+1 μM UNC0642 by static immersion for 6 h at 28.5° C. to induce endothe-lial dysfunction and the resulting leakage of red blood cells. The larvae were then imaged using a Leica fluorescence microscope (Leica Microsystems, Wetzlar, Germany). Red blood cells that leaked out into the tailfin region were quantified.
as §2

Structure (SMILES): COc1cc2c(cc1OCCCN1CCCC1)N=C(N)C21CCC1 [A366, 5-Methoxy-6′-[3-(1-pyrrolidinyl)propoxy]spiro[cyclobutane-1,3′-[3H]indol]-2′-amine]
- Concentration below which non-toxic to zebrafish embryos (zebrafish larvae): below 2.5 mM
- Rescue of sepsis-associated mortality [1]: able to rescue
- Rescue of sepsis-associated vascular leakage [2]: able to rescue

From US11998549B2, “Methods of treating a vascular leakage-associated disease or disorder” (UNITY HEALTH TORONTO, priority 2019, dated 2024)
